# In PubChem BioAssay (NCI):
#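 Protocol summary: plate cells (96-well), add compound at 5 concentrations, incubate 48 h, interpolate endpoints linearly. Abbreviation: GI50, concentration required for 50% inhibition of growth. Definition used: TGI = concentration required for complete inhibition of growth.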
# Tests used:
# Test in all cases: NCI tumour cell line growth inhibition, 48 h
# [1] = tested on: M14 melanoma
# [2] = tested on: DU-145 prostate
# [3] = tested on: SK-OV-3 ovarian
# [4] = tested on: ACHN renal
# [5] = tested on: MOLT-4 leukemia
# [6] = tested on: T-47D breast
# [7] = tested on: NCI-H460 lung
# [8] = tested on: CCRF-CEM leukemia
# [9] = tested on: SN12C renal
# [10] = tested on: NCI/ADR-RES ovarian
# [11] = tested on: SNB-19 CNS
# [12] = tested on: K-562 leukemia
# [13] = tested on: OVCAR-5 ovarian
# [14] = tested on: OVCAR-8 ovarian
# [15] = tested on: SR leukemia
# [16] = tested on: SF-295 CNS
# [17] = tested on: UO-31 renal
# [18] = tested on: IGROV1 ovarian
# [19] = tested on: HS 578T breast
# [20] = tested on: HCT-116 colon
# [21] = tested on: SK-MEL-5 melanoma
# [22] = tested on: NCI-H23 lung
# [23] = tested on: HOP-92 NSCLC
# [24] = tested on: SK-MEL-28 melanoma
# [25] = tested on: U251 CNS
# [26] = tested on: MDA-MB-231 breast
# [27] = tested on: NCI-H226 lung
# [28] = tested on: COLO 205 colon
# [29] = tested on: HCC-2998 colon
# [30] = tested on: MDA-MB-435
# [31] = tested on: UACC-62 melanoma
# [32] = tested on: TK-10 renal
# [33] = tested on: HL-60(TB) leukemia
# [34] = tested on: UACC-257 melanoma
# [35] = tested on: A498 renal
# [36] = tested on: PC-3 prostate
# [37] = tested on: RPMI-8226 leukemia
# [38] = tested on: OVCAR-4 ovarian
# [39] = tested on: EKVX NSCLC
# [40] = tested on: MCF7 breast
# [41] = tested on: HCT-15 colon
# [42] = tested on: KM12 colon
# [43] = tested on: SF-268 CNS
# [44] = tested on: NCI-H522 lung
# [45] = tested on: CAKI-1 renal
# [46] = tested on: LOX IMVI melanoma
# [47] = tested on: SNB-75 CNS
# [48] = tested on: SW-620 colon
# [49] = tested on: SF-539 CNS
# [50] = tested on: RXF 393 renal
# [51] = tested on: OVCAR-3 ovarian
# [52] = tested on: A549 NSCLC
# [53] = tested on: HOP-62 NSCLC
# [54] = tested on: BT-549 breast
# [55] = tested on: 786-0 renal
# [56] = tested on: MALME-3M melanoma
# [57] = tested on: SK-MEL-2 melanoma
# [58] = tested on: HT29 colon
smiles,measurement,setting,value
C=C1C(=O)O[C@H]2[C@H]1CC/C(C=Nc1ccc(C(F)(F)F)cc1N)=C\CC[C@@]1(C)O[C@@H]21,GI50,[1],8.04 µM
same,TGI,[1],22.3 µM
same,GI50,[2],3.21 µM
same,TGI,[2],13.1 µM
same,GI50,[3],16.3 µM
same,TGI,[3],30 µM
same,GI50,[4],6.9 µM
same,TGI,[4],22.1 µM
same,GI50,[5],3.06 µM
same,TGI,[5],9.67 µM
same,GI50,[6],3.31 µM
same,TGI,[6],22.1 µM
same,GI50,[7],7.07 µM
same,TGI,[7],22.7 µM
same,GI50,[8],3.16 µM
same,TGI,[8],11.2 µM
same,GI50,[9],10.1 µM
same,TGI,[9],26.6 µM
same,GI50,[10],8.09 µM
same,TGI,[10],45.2 µM
same,GI50,[11],11.5 µM
same,TGI,[11],26.2 µM
same,GI50,[12],4.39 µM
same,TGI,[12],16.5 µM
same,GI50,[13],13.2 µM
same,TGI,[13],31.7 µM
same,GI50,[14],4.29 µM
same,TGI,[14],15.9 µM
same,GI50,[15],2.66 µM
same,TGI,[15],10.7 µM
same,GI50,[16],13.1 µM
same,TGI,[16],26.3 µM
same,GI50,[17],2.87 µM
same,TGI,[17],19.3 µM
same,GI50,[18],3.36 µM
same,TGI,[18],18.4 µM
same,GI50,[19],11.2 µM
same,TGI,[19],40.4 µM
same,GI50,[20],2.38 µM
same,TGI,[20],11 µM
same,GI50,[21],13.5 µM
same,TGI,[21],26.7 µM
same,GI50,[22],10.7 µM
same,TGI,[22],25.7 µM
same,GI50,[23],15.4 µM
same,TGI,[23],29.7 µM
same,GI50,[24],5.85 µM
same,TGI,[24],20.2 µM
same,GI50,[25],10.9 µM
same,TGI,[25],23.9 µM
same,GI50,[26],7.05 µM
same,TGI,[26],24.3 µM
same,GI50,[27],10 µM
same,TGI,[27],32.2 µM
same,GI50,[28],4.21 µM
same,TGI,[28],16.3 µM
same,GI50,[29],16 µM
same,TGI,[29],34.9 µM
same,GI50,[30],4.74 µM
same,TGI,[30],17.2 µM
same,GI50,[31],2.91 µM
same,TGI,[31],15.6 µM
same,GI50,[32],6.14 µM
same,TGI,[32],17.4 µM
same,GI50,[33],3.53 µM
same,TGI,[33],14.3 µM
same,GI50,[34],12.3 µM
same,TGI,[34],25.8 µM
same,GI50,[35],17 µM
same,TGI,[35],30.8 µM
same,GI50,[36],9.08 µM
same,TGI,[36],23.4 µM
same,GI50,[37],3.24 µM
same,TGI,[37],10.1 µM
same,GI50,[38],4.44 µM
same,TGI,[38],20.6 µM
same,GI50,[39],10.8 µM
same,TGI,[39],23.4 µM
same,GI50,[40],3.06 µM
same,TGI,[40],16 µM
same,GI50,[41],3.48 µM
same,TGI,[41],13.6 µM
same,GI50,[42],13.4 µM
same,TGI,[42],28.3 µM
same,GI50,[43],7.6 µM
same,TGI,[43],21.1 µM
same,GI50,[44],2.43 µM
same,TGI,[44],7.8 µM
same,GI50,[45],3.73 µM
same,TGI,[45],16.7 µM
same,GI50,[46],4.12 µM
same,TGI,[46],17.4 µM
same,GI50,[47],10.9 µM
same,TGI,[47],23.2 µM
same,GI50,[48],3.67 µM
same,TGI,[48],13.2 µM
same,GI50,[49],3.94 µM
same,TGI,[49],15.4 µM
same,GI50,[50],2.87 µM
same,TGI,[50],9.22 µM
same,GI50,[51],2.75 µM
same,TGI,[51],11.3 µM
same,GI50,[52],17.2 µM
same,TGI,[52],32.7 µM
same,GI50,[53],12.8 µM
same,TGI,[53],26.5 µM
same,GI50,[54],7.04 µM
same,TGI,[54],20.2 µM
same,GI50,[55],5.86 µM
same,TGI,[55],18.5 µM
same,GI50,[56],11.1 µM
same,TGI,[56],26.2 µM
same,GI50,[57],11.9 µM
same,TGI,[57],26.5 µM
same,GI50,[58],3.65 µM
same,TGI,[58],8.6 µM
CCc1ccc(CCC(=O)Nc2ncc(Cc3cc(Cl)ccc3Cl)s2)o1,GI50,[1],0.721 µM
same,TGI,[1],> 50 µM
same,GI50,[2],1.74 µM
same,TGI,[2],> 50 µM
same,GI50,[3],2.04 µM
same,TGI,[3],> 50 µM
same,GI50,[4],1.69 µM
same,TGI,[4],11.6 µM
same,GI50,[5],1.3 µM
same,TGI,[5],> 50 µM
same,GI50,[6],1.86 µM
same,TGI,[6],> 50 µM
same,GI50,[7],1.88 µM
same,TGI,[7],> 50 µM
same,GI50,[8],0.843 µM
same,TGI,[8],> 50 µM
same,GI50,[9],1.93 µM
same,TGI,[9],36.9 µM
same,GI50,[10],1.6 µM
same,TGI,[10],> 50 µM
same,GI50,[11],1.87 µM
same,TGI,[11],12.4 µM
same,GI50,[12],0.242 µM
same,TGI,[12],> 50 µM
same,GI50,[13],2.21 µM
same,TGI,[13],> 50 µM
same,GI50,[14],2.25 µM
same,TGI,[14],> 50 µM
same,GI50,[15],0.22 µM
same,TGI,[15],7.92 µM
same,GI50,[16],1.25 µM
same,TGI,[16],7.17 µM
same,GI50,[17],1.86 µM
same,TGI,[17],22.5 µM
same,GI50,[18],1.69 µM
same,TGI,[18],> 50 µM
same,GI50,[19],1.29 µM
same,TGI,[19],5.96 µM
same,GI50,[20],0.988 µM
same,TGI,[20],9.1 µM
same,GI50,[21],1.21 µM
same,TGI,[21],> 50 µM
same,GI50,[22],2.49 µM
same,TGI,[22],> 50 µM
same,GI50,[23],2.08 µM
same,TGI,[23],> 50 µM
same,GI50,[24],2.75 µM
same,TGI,[24],> 50 µM
same,GI50,[25],1.61 µM
same,TGI,[25],11.7 µM
same,GI50,[26],2.16 µM
same,TGI,[26],15.6 µM
same,GI50,[27],3.61 µM
same,TGI,[27],> 50 µM
same,GI50,[28],1.26 µM
same,TGI,[28],11 µM
same,GI50,[29],2.99 µM
same,TGI,[29],> 50 µM
same,GI50,[30],0.15 µM
same,TGI,[30],0.486 µM
same,GI50,[31],1.49 µM
same,TGI,[31],> 50 µM
same,GI50,[32],3.47 µM
same,TGI,[32],> 50 µM
same,GI50,[33],0.887 µM
same,TGI,[33],2.11 µM
same,GI50,[35],1.19 µM
same,TGI,[35],3.46 µM
same,GI50,[36],1.49 µM
same,TGI,[36],> 50 µM
same,GI50,[37],1.21 µM
same,TGI,[37],6.92 µM
same,GI50,[38],1.78 µM
same,TGI,[38],12.6 µM
same,GI50,[39],2.32 µM
same,TGI,[39],> 50 µM
same,GI50,[40],0.399 µM
same,TGI,[40],> 50 µM
same,GI50,[41],0.508 µM
same,TGI,[41],> 50 µM
same,GI50,[42],1.12 µM
same,TGI,[42],> 50 µM
same,GI50,[43],3.6 µM
same,TGI,[43],> 50 µM
same,GI50,[44],1.62 µM
same,TGI,[44],> 50 µM
same,GI50,[45],0.774 µM
same,TGI,[45],12.1 µM
same,GI50,[46],2.04 µM
same,TGI,[46],> 50 µM
same,GI50,[47],0.412 µM
same,TGI,[47],2.4 µM
same,GI50,[48],0.935 µM
same,TGI,[48],> 50 µM
same,GI50,[49],1.26 µM
same,TGI,[49],4.1 µM
same,GI50,[50],1.19 µM
same,TGI,[50],6.87 µM
same,GI50,[51],1.33 µM
same,TGI,[51],4.76 µM
same,GI50,[52],2.14 µM
same,TGI,[52],> 50 µM
same,GI50,[53],2.01 µM
same,TGI,[53],16.9 µM
same,GI50,[54],> 50 µM
same,TGI,[54],> 50 µM
same,GI50,[55],2.7 µM
same,TGI,[55],> 50 µM
same,GI50,[56],1.38 µM
same,TGI,[56],> 50 µM
same,GI50,[57],2.66 µM
same,TGI,[57],> 50 µM
same,GI50,[58],1.17 µM
same,TGI,[58],> 50 µM
